Results on three substances are retold here after publication PMC4077772, “Evolutionary Origin of GnIH and NPFF in Chordates: Insights from Novel Amphioxus RFamide Peptides” (PLoS ONE, 2014).

Where no end group is shown, it is not given here.

One test concerns CRE-luciferase activity. The following applies: ref [41]; cited from earlier work. The source says: (§1) We conducted in vitro assays to analyze whether the amphioxus PQRFa peptides have a biological activity.
Another test deals with cAMP levels. Conditions: ref [42]; cited from earlier work.
Excerpt: as §1

The next test concerns amphioxus PQRFa-R1. Put plainly: FSK-induced CRE-luciferase reporter assay, COS-7 cells transfected with amphioxus PQRFa-R1. Type of test: cell-based, Branchiostoma japonicum. Conditions: 6 h, COS-7 cells with PQRFa-R1, tested 10^−10−10^−6 M, dual-luciferase, fold activation over basal, mean ± SEM (n=4−6), Figure 6. Here is the method: COS-7 cells were maintained in Dulbecco's modified Eagle's medium (DMEM; GIBCO/Invitrogen, Carlsbad, CA) supplemented with high glucose (4.5 g/L) containing 10% fetal bovine serum (GIBCO/Invitrogen) and 1% penicillin/streptomycin antibiotics (GIBCO/Invitrogen) in a humidified 5% CO2 atmosphere at 37°C. For luciferase assay, COS-7 cells were plated in 24-well plates and grown to 70–80% confluence for 24 h before transfection. Cells were then co-transfected with 200 ng of p3XFLAG-CMV-14 expression vector (Sigma-Aldrich Co., St Louis, MO) containing the amphioxus PQRFa-R1, PQRFa-R2, or empty vector, 200 ng of the pGL4.29[luc2P/CRE/Hygro] […] Cell extracts were prepared, and luciferase activity was measured using the dual-luciferase reporter assay system (Promega). […] Statistical significance was assessed by Prism statistical software (GraphPad Software Inc., La Jolla, CA). […]
Figure 5 Effect of amphioxus PQRFa peptides on forskolin (FSK)-induced or basal CRE-luciferase activity. […] The effect of amphioxus PQRFa peptides on basal CRE-luciferase activity was also tested in COS-7 cells transfected with amphioxus PQRFa-R1 or R2.The relative luciferase activity was measured from cell lysates and expressed as fold activation over the respective basal levels. […]
Background: In a reporter assay the amount or activity of a reporter protein is the signal.

Another test has as its system pituitary. The following applies: lamprey GnIH; ref [24]; cited from earlier work.
Excerpt: as §1

Take “FLFQPQRFamide [NPFF, pain modulatory neuropeptide with a C-terminal Pro-Gln-Arg-Phe-NH2 motif]”: the “effect on FSK-stimulated CRE-luciferase activity” value in the test with CRE-luciferase activity is “inhibited FSK-stimulated CRE-luciferase activity”. In addition, in the test with cAMP levels, the “effect on cAMP levels” value was “inhibited cAMP levels”.

As to GRDQGWRPQRF-NH2 [PQRFa-3], the “inhibition of FSK-induced CRE-luciferase activity (dose-dependent study)” value in the test with amphioxus PQRFa-R1 (10^−6 M peptide) and in the test on amphioxus PQRFa-R1 (10^−7 M peptide) was “inhibited FSK-induced CRE-luciferase activity” throughout.

Take “SEPFWHRTRPQRF-NH2 [Lamprey GnIH (LPXRFa peptide-2), lamprey GnIH ortholog]”: in the test on pituitary, the “effect on expression of GTHβ mRNA in the pituitary” value is “increased the expression of GTHβ mRNA”.
